The results in this text go back to PubChem BioAssay AID256 (DTP/NCI, 2004).

The assay deals with CD2F1 mice, L1210 leukemia ip, survival T/C. In words: NCI In Vivo Anticancer Drug Screen. Data for tumor model L1210 Leukemia (intraperitoneal) in CD2F1 (CDF1) mice. To be noted: higher = longer survival. A digest of the protocol: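 Mice carrying a transplanted tumor received test compound or vehicle alone. The value is the measurement in the treated group divided by that in the vehicle-treated control group.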

Setting [1] is: endpoint: mean survival time, dose: 100.0 mg/kg/injection, schedule: Q01DX001 (ip), vehicle: saline with Tween-80.
[2] abbreviates: endpoint: mean survival time, dose: 50.0 mg/kg/injection, schedule: Q01DX009 (ip), vehicle: saline.
[3] abbreviates: endpoint: mean survival time, dose: 100.0 mg/kg/injection, schedule: Q01DX009 (ip), vehicle: saline.
[4] abbreviates: endpoint: mean survival time, dose: 100.0 mg/kg/injection, schedule: Q04DX003 (ip), vehicle: saline with Tween-80.
The mark [5] stands for this setting: endpoint: mean survival time, dose: 200.0 mg/kg/injection, schedule: Q01DX009 (ip), vehicle: saline.
[6] abbreviates: endpoint: mean survival time, dose: 200.0 mg/kg/injection, schedule: Q04DX003 (ip), vehicle: saline with Tween-80.
[7] abbreviates: endpoint: mean survival time, dose: 400.0 mg/kg/injection, schedule: Q04DX003 (ip), vehicle: saline with Tween-80.
[8] abbreviates: endpoint: mean survival time, dose: 100.0 mg/kg/injection, schedule: Q01DX009 (ip), vehicle: saline with Tween-80.
Where [9] appears, read: endpoint: mean survival time, dose: 200.0 mg/kg/injection, schedule: Q01DX009 (ip), vehicle: saline with Tween-80.
Where [10] appears, read: endpoint: mean survival time, dose: 400.0 mg/kg/injection, schedule: Q01DX009 (ip), vehicle: saline with Tween-80.
Where [11] appears, read: endpoint: mean survival time, dose: 50.0 mg/kg/injection, schedule: Q01DX009 (ip), vehicle: saline with Tween-80.

Values joined by “and” are separate entries in the source; they are usually repeats but may differ in a detail not shown here. Equal entries are not always repeated. Toxic doses and inconclusive results are not listed.

As for `c1ccc([As]2[As](c3ccccc3)[As](c3ccccc3)[As]2c2ccccc2)cc1` (stereo not given), the T/C (endpoint: mean survival time, dose: 5.0 mg/kg/injection, schedule: Q01DX001 (ip), vehicle: saline) is 101 % of control; the T/C (endpoint: mean survival time, dose: 10.0 mg/kg/injection, schedule: Q01DX001 (ip), vehicle: saline) is 108 % of control; the T/C (endpoint: mean survival time, dose: 20.0 mg/kg/injection, schedule: Q01DX001 (ip), vehicle: saline) was 111 % of control; the T/C (endpoint: mean survival time, dose: 40.0 mg/kg/injection, schedule: Q01DX001 (ip), vehicle: saline) was 113 % of control; the T/C (endpoint: mean survival time, dose: 80.0 mg/kg/injection, schedule: Q01DX001 (ip), vehicle: saline) was 119 % of control.

For the molecule `N#CC12OC1(C#N)C(=O)C=CC2=O` (stereo not given), the T/C is 104 % of control (endpoint: mean survival time, dose: 6.25 mg/kg/injection, schedule: Q01DX001 (ip), vehicle: saline); 89 % of control (endpoint: mean survival time, dose: 12.5 mg/kg/injection, schedule: Q01DX001 (ip), vehicle: saline); 93 % of control (endpoint: mean survival time, dose: 25.0 mg/kg/injection, schedule: Q01DX001 (ip), vehicle: saline).

On to `Cc1cccc(Nc2c3ccccc3nc3ccccc23)c1`, for which the T/C under setting [1] is 100 % of control.

In the case of `CCOC(=O)c1cc(C(=O)OCC)c2ccc(Br)ccc1-2`, the T/C runs as follows: (endpoint: mean survival time, dose: 100.0 mg/kg/injection, schedule: Q01DX001 (sc), vehicle: olive oil, sesame oil, peanut oil) 105 % of control; (endpoint: mean survival time, dose: 200.0 mg/kg/injection, schedule: Q01DX001 (sc), vehicle: olive oil, sesame oil, peanut oil) 96 % of control; (endpoint: mean survival time, dose: 400.0 mg/kg/injection, schedule: Q01DX001 (sc), vehicle: olive oil, sesame oil, peanut oil) 93 % of control.

For the molecule `CCCCCC/C=C\C(=O)O`, the T/C by setting is: under setting [2], 101 % of control; under setting [3], 97 % of control; under setting [4], 98 % of control; under setting [5], 93 % of control; under setting [6], 93 % of control; under setting [7], 87 % of control.

For `Cc1ccc(N/N=C/C(=O)O)cc1`, the T/C is 101 % of control (endpoint: mean survival time, dose: 12.5 mg/kg/injection, schedule: Q04DX003 (ip), vehicle: other); 101 % of control (endpoint: mean survival time, dose: 25.0 mg/kg/injection, schedule: Q04DX003 (ip), vehicle: other); 97 % of control (endpoint: mean survival time, dose: 50.0 mg/kg/injection, schedule: Q04DX003 (ip), vehicle: other); 95 % of control (endpoint: mean survival time, dose: 100.0 mg/kg/injection, schedule: Q04DX003 (ip), vehicle: other); 94 % of control (endpoint: mean survival time, dose: 400.0 mg/kg/injection, schedule: Q04DX003 (ip), vehicle: other).

As to `S=c1nn[nH]n1-c1ccccc1`, the T/C was 103 % of control under setting [3] and 109 % of control under setting [5].

Regarding `C[C@H]1CN1C1=CC(=O)C(N2C[C@@H]2C)=CC1=O`, the T/C reads like this: (endpoint: mean survival time, dose: 3.13 mg/kg/injection, schedule: Q01DX009 (ip), vehicle: other) 183 % of control; (endpoint: mean survival time, dose: 4.69 mg/kg/injection, schedule: Q01DX009 (ip), vehicle: other) 168 % of control; (endpoint: mean survival time, dose: 6.25 mg/kg/injection, schedule: Q01DX009 (ip), vehicle: other) 123 % of control; (endpoint: mean survival time, dose: 12.6 mg/kg/injection, schedule: Q01DX001 (ip), vehicle: other) 116 % of control; (endpoint: mean survival time, dose: 18.7 mg/kg/injection, schedule: Q04DX003 (ip), vehicle: saline with Tween-80) 98 % of control.

Take `CCOC(=O)NS(=O)(=O)Nc1ccccc1`: the T/C was 104 % of control under setting [8], 102 % of control under setting [9] and 96 % of control under setting [10].

With `Clc1cccc(-n2ccnc2)c1`, the T/C reads like this: under setting [8], 109 % of control; under setting [9], 113 % of control.

In the case of `Cc1ccc(NC(=O)c2ccc(C(=O)Nc3ccc(C)c(Cl)c3)cc2)cc1Cl`, the T/C is 89 % of control (endpoint: mean survival time, dose: 100.0 mg/kg/injection, schedule: Q01DX001 (ip), vehicle: saline); 98 % of control (endpoint: mean survival time, dose: 200.0 mg/kg/injection, schedule: Q01DX001 (ip), vehicle: saline); 89 % of control (endpoint: mean survival time, dose: 400.0 mg/kg/injection, schedule: Q01DX001 (ip), vehicle: saline).

`COC(=O)/C1=C/CCCCCC(=O)C1C(=O)OC` (stereo not given): the T/C by setting is: under setting [8], 96 % of control; under setting [4], 96 % of control; under setting [9], 96 % of control; under setting [6], 100 % of control; under setting [10], 93 % of control; under setting [7], 96 % of control.

For `Cc1ccc(C(=O)N/N=C/C(=O)O)cc1`, the T/C by setting is: (endpoint: mean survival time, dose: 25.0 mg/kg/injection, schedule: Q01DX009 (ip), vehicle: water) 102 % of control; (endpoint: mean survival time, dose: 50.0 mg/kg/injection, schedule: Q01DX009 (ip), vehicle: water) 95 % of control; (endpoint: mean survival time, dose: 100.0 mg/kg/injection, schedule: Q01DX009 (ip), vehicle: water) 102 % of control; (endpoint: mean survival time, dose: 200.0 mg/kg/injection, schedule: Q01DX009 (ip), vehicle: water) 95 % of control.

In the case of `COc1cc(C2=NCCc3cc4c(cc32)OCO4)cc(OC)c1OC`, the T/C is 106 % of control (endpoint: median survival time, dose: 6.25 mg/kg/injection, schedule: Q01DX009 (ip), vehicle: saline + alcohol); 105 % of control (endpoint: median survival time, dose: 12.5 mg/kg/injection, schedule: Q01DX009 (ip), vehicle: saline + alcohol); 97 % of control and 102 % of control (endpoint: median survival time, dose: 12.5 mg/kg/injection, schedule: Q01DX009 (ip), vehicle: saline); 107 % of control (endpoint: median survival time, dose: 25.0 mg/kg/injection, schedule: Q01DX009 (ip), vehicle: saline + alcohol); 93 % of control and 104 % of control (endpoint: median survival time, dose: 25.0 mg/kg/injection, schedule: Q01DX009 (ip), vehicle: saline); 106 % of control (endpoint: median survival time, dose: 50.0 mg/kg/injection, schedule: Q01DX009 (ip), vehicle: saline + alcohol). In addition, the T/C is, setting by setting: (endpoint: median survival time, dose: 50.0 mg/kg/injection, schedule: Q01DX009 (ip), vehicle: saline) 105 % of control; (endpoint: median survival time, dose: 100.0 mg/kg/injection, schedule: Q01DX009 (ip), vehicle: saline + alcohol) 109 % of control; (endpoint: median survival time, dose: 100.0 mg/kg/injection, schedule: Q01DX009 (ip), vehicle: saline) 105 % of control.

For the molecule `O=C(O)CC1(O)CCCCC1c1ccccc1` (stereo not given), the T/C reads like this: under setting [4], 104 % of control; under setting [6], 105 % of control; under setting [7], 88 % of control.

As to `Cc1ccc(NC(=O)/C=C/C(=O)O)cc1C`, the T/C was 95 % of control under setting [11], 101 % of control under setting [8] and 105 % of control under setting [9].

Turning to `COc1ccc(C2=CC(=O)N(C(C)C)C2=O)cc1`, the T/C by setting is: (endpoint: mean survival time, dose: 25.0 mg/kg/injection, schedule: Q04DX003 (ip), vehicle: saline with Tween-80) 116 % of control; (endpoint: mean survival time, dose: 50.0 mg/kg/injection, schedule: Q04DX003 (ip), vehicle: saline with Tween-80) 93 % of control; under setting [4], 98 % of control; under setting [6], 108 % of control.

On to `Cc1ccc(S/C=C/C(=O)Nc2ccccc2)cc1`, for which the T/C reads like this: (endpoint: mean survival time, dose: 25.0 mg/kg/injection, schedule: Q04DX002 (ip), vehicle: saline with Tween-80) 101 % of control; (endpoint: mean survival time, dose: 50.0 mg/kg/injection, schedule: Q04DX002 (ip), vehicle: saline with Tween-80) 94 % of control; under setting [1], 97 % of control; (endpoint: mean survival time, dose: 100.0 mg/kg/injection, schedule: Q04DX002 (ip), vehicle: saline with Tween-80) 101 % of control; under setting [4], 87 % of control; (endpoint: mean survival time, dose: 200.0 mg/kg/injection, schedule: Q01DX001 (ip), vehicle: saline with Tween-80) 105 % of control. The T/C (endpoint: mean survival time, dose: 400.0 mg/kg/injection, schedule: Q01DX001 (ip), vehicle: saline with Tween-80) was 94 % of control.

With `COc1ccc(/C(C)=N\NC(=O)c2ccccc2)cc1`, the T/C is 91 % of control under setting [11]; 94 % of control under setting [8]; 98 % of control under setting [4]; 89 % of control under setting [9]; 104 % of control under setting [6].

For `Clc1ccc(C(=C(c2ccc(Cl)cc2)c2ccc(Cl)cc2)c2ccc(Cl)cc2)cc1`, the T/C runs as follows: (endpoint: mean survival time, dose: 75.0 mg/kg/injection, schedule: Q01DX001 (ip), vehicle: saline) 100 % of control; (endpoint: mean survival time, dose: 150.0 mg/kg/injection, schedule: Q01DX001 (ip), vehicle: saline) 95 % of control; (endpoint: mean survival time, dose: 300.0 mg/kg/injection, schedule: Q01DX001 (ip), vehicle: saline) 93 % of control.

Take `CC(Br)C(C)Br` (stereo not given): the T/C is 103 % of control under setting [2], 95 % of control under setting [3] and 100 % of control under setting [5].
